Results published in ChEMBL document CHEMBL4507288 (2021).

Legend:
Histamine H2 receptor = Histamine H2 receptor (Homo sapiens, UniProt P25021); conditions: Compound concentration 10.0 uM
[1] = biological target: Tyrosine-protein kinase Lyn (Homo sapiens) (UniProt P07948); conditions: Compound concentration 1000.0 nM
[2] = biological target: Wee1-like protein kinase 2 (Homo sapiens) (UniProt P0C1S8); conditions: Compound concentration 1000.0 nM
[3] = biological target: Serine/threonine-protein kinase 24 (Homo sapiens) (UniProt Q9Y6E0); conditions: Compound concentration 1000.0 nM
[4] = biological target: Serine/threonine-protein kinase TAO3 (Homo sapiens) (UniProt Q9H2K8); conditions: Compound concentration 1000.0 nM
[5] = biological target: Dual specificity protein kinase CLK4 (Homo sapiens) (UniProt Q9HAZ1); conditions: Compound concentration 1000.0 nM
Dual specificity protein kinase CLK4 (Homo sapiens), sequence (Q9HAZ1 whole entry, looked up): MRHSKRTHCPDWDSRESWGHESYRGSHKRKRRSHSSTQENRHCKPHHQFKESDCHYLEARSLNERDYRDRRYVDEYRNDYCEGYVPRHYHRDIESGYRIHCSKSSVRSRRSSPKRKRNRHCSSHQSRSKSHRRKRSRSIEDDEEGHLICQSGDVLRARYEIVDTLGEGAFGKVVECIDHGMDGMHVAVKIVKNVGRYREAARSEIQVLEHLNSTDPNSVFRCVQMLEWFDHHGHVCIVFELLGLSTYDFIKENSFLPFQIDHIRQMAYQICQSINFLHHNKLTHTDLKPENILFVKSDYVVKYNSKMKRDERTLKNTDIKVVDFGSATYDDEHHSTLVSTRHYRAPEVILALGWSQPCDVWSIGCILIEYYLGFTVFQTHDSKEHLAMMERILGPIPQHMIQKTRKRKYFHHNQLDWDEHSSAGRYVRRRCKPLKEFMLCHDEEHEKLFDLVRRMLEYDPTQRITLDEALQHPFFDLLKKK

[6] = biological target: Tyrosine-protein kinase Fes/Fps (Homo sapiens) (UniProt P07332); conditions: Compound concentration 1000.0 nM
Tyrosine-protein kinase Fes/Fps (Homo sapiens), sequence (P07332 whole entry): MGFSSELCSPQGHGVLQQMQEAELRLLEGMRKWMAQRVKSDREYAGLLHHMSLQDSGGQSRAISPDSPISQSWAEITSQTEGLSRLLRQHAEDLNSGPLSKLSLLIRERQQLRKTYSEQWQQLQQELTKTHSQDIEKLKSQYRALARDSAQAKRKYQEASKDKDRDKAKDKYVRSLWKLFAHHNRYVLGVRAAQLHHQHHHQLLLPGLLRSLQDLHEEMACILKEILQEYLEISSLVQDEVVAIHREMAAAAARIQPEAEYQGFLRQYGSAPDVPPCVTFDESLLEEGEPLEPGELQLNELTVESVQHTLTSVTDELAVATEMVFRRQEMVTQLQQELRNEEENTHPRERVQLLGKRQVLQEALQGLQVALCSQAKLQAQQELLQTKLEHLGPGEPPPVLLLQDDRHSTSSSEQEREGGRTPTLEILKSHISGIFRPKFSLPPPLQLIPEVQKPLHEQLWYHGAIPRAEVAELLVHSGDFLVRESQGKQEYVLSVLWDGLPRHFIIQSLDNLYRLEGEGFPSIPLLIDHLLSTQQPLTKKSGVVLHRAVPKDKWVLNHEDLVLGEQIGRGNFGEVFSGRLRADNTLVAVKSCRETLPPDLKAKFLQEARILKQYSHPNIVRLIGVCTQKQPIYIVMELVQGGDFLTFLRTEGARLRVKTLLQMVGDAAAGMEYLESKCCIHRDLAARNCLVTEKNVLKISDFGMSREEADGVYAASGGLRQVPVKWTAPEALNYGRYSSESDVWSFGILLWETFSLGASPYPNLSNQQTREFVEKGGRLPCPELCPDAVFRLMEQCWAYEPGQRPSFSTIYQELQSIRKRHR

[7] = biological target: Serine/threonine-protein kinase haspin (Homo sapiens) (UniProt Q8TF76); conditions: Compound concentration 1000.0 nM
[8] = biological target: G protein-coupled receptor kinase 4 (Homo sapiens) (UniProt P32298); conditions: Compound concentration 1000.0 nM
[9] = biological target: Ribosomal protein S6 kinase beta-1 (Homo sapiens) (UniProt P23443); conditions: Compound concentration 1000.0 nM
[10] = biological target: cAMP-dependent protein kinase catalytic subunit alpha (Homo sapiens) (UniProt P17612); conditions: Compound concentration 1000.0 nM
[11] = biological target: Phosphorylase b kinase gamma catalytic chain, skeletal muscle/heart isoform (Homo sapiens) (UniProt Q16816); conditions: Compound concentration 1000.0 nM
[12] = biological target: Serine/threonine-protein kinase RIO3 (Homo sapiens) (UniProt O14730); conditions: Compound concentration 1000.0 nM
[13] = biological target: Leucine-rich repeat serine/threonine-protein kinase 2 (Homo sapiens) (UniProt Q5S007); conditions: Compound concentration 1000.0 nM
[14] = system: Tyrosine-protein kinase ABL1 (Homo sapiens), P00519 [T315I]; conditions: Compound concentration 1000.0 nM
[15] = biological target: Dual specificity tyrosine-phosphorylation-regulated kinase 2 (Homo sapiens) (UniProt Q92630); conditions: Compound concentration 1000.0 nM
[16] = biological target: NT-3 growth factor receptor (Homo sapiens) (UniProt Q16288); conditions: Compound concentration 1000.0 nM
[17] = biological target: Serine/threonine-protein kinase SIK1 (Homo sapiens) (UniProt P57059); conditions: Compound concentration 1000.0 nM
[18] = system: Epidermal growth factor receptor (Homo sapiens), P00533 [L861Q]; conditions: Compound concentration 1000.0 nM
[19] = biological target: Epithelial discoidin domain-containing receptor 1 (Homo sapiens) (UniProt Q08345); conditions: Compound concentration 1000.0 nM
[20] = biological target: Activin receptor type-2B (Homo sapiens) (UniProt Q13705); conditions: Compound concentration 1000.0 nM
[21] = system: Mast/stem cell growth factor receptor Kit (Homo sapiens), P10721 [D816H]; conditions: Compound concentration 1000.0 nM
[22] = system: Tyrosine-protein kinase ABL1 (Homo sapiens), P00519 [Q252H]; conditions: Compound concentration 1000.0 nM
[23] = biological target: Tyrosine-protein kinase ABL1 (Homo sapiens) (UniProt P00519); conditions: Compound concentration 1000.0 nM
[24] = biological target: Mitogen-activated protein kinase 3 (Homo sapiens) (UniProt P27361); conditions: Compound concentration 1000.0 nM
Mitogen-activated protein kinase 3 (Homo sapiens), sequence (P27361 whole entry): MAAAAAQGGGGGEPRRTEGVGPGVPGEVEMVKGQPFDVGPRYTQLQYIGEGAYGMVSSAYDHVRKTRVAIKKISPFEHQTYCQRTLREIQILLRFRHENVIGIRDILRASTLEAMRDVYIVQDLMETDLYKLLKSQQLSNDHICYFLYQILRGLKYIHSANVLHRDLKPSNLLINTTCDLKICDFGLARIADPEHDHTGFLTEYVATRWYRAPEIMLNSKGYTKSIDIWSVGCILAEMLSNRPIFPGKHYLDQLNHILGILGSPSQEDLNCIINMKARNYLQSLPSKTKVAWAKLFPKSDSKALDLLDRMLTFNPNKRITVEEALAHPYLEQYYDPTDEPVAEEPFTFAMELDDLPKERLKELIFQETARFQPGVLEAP

[25] = biological target: Non-receptor tyrosine-protein kinase TYK2 (Homo sapiens) (UniProt P29597); conditions: Compound concentration 1000.0 nM
[26] = biological target: Insulin receptor (Homo sapiens) (UniProt P06213); conditions: Compound concentration 1000.0 nM
[27] = biological target: Beta-2 adrenergic receptor (Homo sapiens) (UniProt P07550); conditions: Compound concentration 10.0 uM
[28] = biological target: Phosphatidylinositol 4-phosphate 5-kinase type-1 gamma (Homo sapiens) (UniProt O60331); conditions: Compound concentration 1000.0 nM
[29] = biological target: Serine/threonine-protein kinase PAK 5 (Homo sapiens) (UniProt Q9P286); conditions: Compound concentration 1000.0 nM
[30] = biological target: Ephrin type-B receptor 1 (Homo sapiens) (UniProt P54762); conditions: Compound concentration 1000.0 nM
[31] = biological target: High affinity nerve growth factor receptor (Homo sapiens) (UniProt P04629); conditions: Compound concentration 1000.0 nM
[32] = biological target: Tyrosine-protein kinase receptor Tie-1 (Homo sapiens) (UniProt P35590); conditions: Compound concentration 1000.0 nM
[33] = biological target: MAP/microtubule affinity-regulating kinase 3 (Homo sapiens) (UniProt P27448); conditions: Compound concentration 1000.0 nM
[34] = biological target: Focal adhesion kinase 1 (Homo sapiens) (UniProt Q05397); conditions: Compound concentration 1000.0 nM
[35] = biological target: Serine/threonine-protein kinase Sgk3 (Homo sapiens) (UniProt Q96BR1); conditions: Compound concentration 1000.0 nM
[36] = biological target: Epidermal growth factor receptor (Homo sapiens) (UniProt P00533); conditions: Compound concentration 1000.0 nM
[37] = biological target: SRSF protein kinase 1 (Homo sapiens) (UniProt Q96SB4); conditions: Compound concentration 1000.0 nM
SRSF protein kinase 1 (Homo sapiens), sequence (Q96SB4 whole entry): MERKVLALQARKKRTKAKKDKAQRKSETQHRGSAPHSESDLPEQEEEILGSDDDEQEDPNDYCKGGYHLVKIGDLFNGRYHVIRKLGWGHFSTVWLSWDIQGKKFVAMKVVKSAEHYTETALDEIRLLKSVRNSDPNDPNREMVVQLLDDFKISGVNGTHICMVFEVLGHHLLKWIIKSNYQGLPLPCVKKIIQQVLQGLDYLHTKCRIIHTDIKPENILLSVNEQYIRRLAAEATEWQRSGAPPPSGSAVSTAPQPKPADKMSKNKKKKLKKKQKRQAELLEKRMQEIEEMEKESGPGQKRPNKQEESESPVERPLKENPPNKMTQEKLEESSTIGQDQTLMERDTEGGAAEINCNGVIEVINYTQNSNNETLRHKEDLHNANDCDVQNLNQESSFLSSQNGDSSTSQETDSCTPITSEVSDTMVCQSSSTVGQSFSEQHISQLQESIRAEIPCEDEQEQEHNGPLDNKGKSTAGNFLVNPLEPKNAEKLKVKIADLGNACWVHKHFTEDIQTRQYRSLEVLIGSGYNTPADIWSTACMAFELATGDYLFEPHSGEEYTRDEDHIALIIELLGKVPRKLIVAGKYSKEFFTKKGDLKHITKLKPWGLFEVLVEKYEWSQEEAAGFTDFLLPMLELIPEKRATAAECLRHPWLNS

[38] = biological target: Serine/threonine-protein kinase tousled-like 2 (Homo sapiens) (UniProt Q86UE8); conditions: Compound concentration 1000.0 nM
Serine/threonine-protein kinase tousled-like 2 (Homo sapiens), sequence (Q86UE8 whole entry, looked up): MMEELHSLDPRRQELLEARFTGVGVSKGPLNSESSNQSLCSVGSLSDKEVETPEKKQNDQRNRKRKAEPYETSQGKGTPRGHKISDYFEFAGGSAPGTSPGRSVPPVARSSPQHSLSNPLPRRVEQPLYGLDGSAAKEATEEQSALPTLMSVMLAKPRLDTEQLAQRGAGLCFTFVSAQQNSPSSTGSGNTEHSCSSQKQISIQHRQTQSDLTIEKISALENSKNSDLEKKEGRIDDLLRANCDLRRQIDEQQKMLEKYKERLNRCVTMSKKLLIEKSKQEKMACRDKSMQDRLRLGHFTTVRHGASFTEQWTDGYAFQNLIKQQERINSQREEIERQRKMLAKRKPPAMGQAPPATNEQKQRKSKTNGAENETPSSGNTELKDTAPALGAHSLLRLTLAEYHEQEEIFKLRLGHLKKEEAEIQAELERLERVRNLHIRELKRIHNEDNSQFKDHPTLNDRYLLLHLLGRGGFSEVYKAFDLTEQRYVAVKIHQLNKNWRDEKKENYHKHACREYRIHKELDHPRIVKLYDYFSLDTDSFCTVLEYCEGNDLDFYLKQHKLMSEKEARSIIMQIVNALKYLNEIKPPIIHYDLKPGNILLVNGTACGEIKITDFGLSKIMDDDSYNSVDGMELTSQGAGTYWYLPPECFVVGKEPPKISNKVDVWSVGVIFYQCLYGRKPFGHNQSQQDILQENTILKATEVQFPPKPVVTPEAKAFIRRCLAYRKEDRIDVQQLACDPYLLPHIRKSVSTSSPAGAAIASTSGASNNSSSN

[39] = biological target: Mitogen-activated protein kinase kinase kinase 7 (Homo sapiens) (UniProt O43318); conditions: Compound concentration 1000.0 nM
[40] = biological target: Myosin light chain kinase (Homo sapiens) (UniProt Q32MK0); conditions: Compound concentration 1000.0 nM
Myosin light chain kinase (Homo sapiens), sequence (Q32MK0 whole entry): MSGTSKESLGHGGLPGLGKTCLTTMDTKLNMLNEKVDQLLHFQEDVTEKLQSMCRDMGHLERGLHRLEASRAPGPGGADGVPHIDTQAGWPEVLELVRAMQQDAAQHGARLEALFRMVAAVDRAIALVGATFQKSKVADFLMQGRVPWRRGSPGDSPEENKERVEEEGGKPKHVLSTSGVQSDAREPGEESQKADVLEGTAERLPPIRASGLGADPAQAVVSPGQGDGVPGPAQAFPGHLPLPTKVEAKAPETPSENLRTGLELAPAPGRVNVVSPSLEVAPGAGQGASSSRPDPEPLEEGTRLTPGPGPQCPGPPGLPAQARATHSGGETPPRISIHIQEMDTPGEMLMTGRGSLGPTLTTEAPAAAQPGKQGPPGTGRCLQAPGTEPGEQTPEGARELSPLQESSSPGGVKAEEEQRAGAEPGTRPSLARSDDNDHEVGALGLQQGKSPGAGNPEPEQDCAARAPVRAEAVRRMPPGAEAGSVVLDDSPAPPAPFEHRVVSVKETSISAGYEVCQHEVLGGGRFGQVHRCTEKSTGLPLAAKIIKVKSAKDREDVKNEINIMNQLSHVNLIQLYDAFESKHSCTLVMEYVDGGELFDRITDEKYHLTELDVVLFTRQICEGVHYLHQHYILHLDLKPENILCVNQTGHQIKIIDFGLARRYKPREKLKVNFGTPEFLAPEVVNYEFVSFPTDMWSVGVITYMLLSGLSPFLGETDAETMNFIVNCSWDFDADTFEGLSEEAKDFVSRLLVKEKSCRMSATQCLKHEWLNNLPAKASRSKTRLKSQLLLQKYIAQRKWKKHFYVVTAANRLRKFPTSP

[41] = biological target: Serine/threonine-protein kinase Nek2 (Homo sapiens) (UniProt P51955); conditions: Compound concentration 1000.0 nM
[42] = biological target: Cyclin-dependent kinase 4 (Homo sapiens) (UniProt P11802); conditions: Compound concentration 1000.0 nM
[43] = biological target: Fibroblast growth factor receptor 3 (Homo sapiens) (UniProt P22607); conditions: Compound concentration 1000.0 nM
[44] = biological target: Calcium/calmodulin-dependent protein kinase type 1D (Homo sapiens) (UniProt Q8IU85); conditions: Compound concentration 1000.0 nM
[45] = biological target: Calcium/calmodulin-dependent protein kinase type 1 (Homo sapiens) (UniProt Q14012); conditions: Compound concentration 1000.0 nM
Calcium/calmodulin-dependent protein kinase type 1 (Homo sapiens), sequence (Q14012 whole entry, looked up): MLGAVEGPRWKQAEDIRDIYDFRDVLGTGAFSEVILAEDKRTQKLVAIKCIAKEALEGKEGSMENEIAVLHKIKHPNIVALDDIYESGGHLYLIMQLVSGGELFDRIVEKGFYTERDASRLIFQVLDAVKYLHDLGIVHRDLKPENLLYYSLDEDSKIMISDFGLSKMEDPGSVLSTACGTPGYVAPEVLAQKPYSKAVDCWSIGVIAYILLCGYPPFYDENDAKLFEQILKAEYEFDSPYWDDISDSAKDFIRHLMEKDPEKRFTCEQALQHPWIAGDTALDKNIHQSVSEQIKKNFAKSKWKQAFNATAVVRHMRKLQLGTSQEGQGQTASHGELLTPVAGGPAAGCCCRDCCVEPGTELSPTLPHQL

Wee1-like protein kinase 2 (Homo sapiens), sequence (P0C1S8 whole entry, looked up): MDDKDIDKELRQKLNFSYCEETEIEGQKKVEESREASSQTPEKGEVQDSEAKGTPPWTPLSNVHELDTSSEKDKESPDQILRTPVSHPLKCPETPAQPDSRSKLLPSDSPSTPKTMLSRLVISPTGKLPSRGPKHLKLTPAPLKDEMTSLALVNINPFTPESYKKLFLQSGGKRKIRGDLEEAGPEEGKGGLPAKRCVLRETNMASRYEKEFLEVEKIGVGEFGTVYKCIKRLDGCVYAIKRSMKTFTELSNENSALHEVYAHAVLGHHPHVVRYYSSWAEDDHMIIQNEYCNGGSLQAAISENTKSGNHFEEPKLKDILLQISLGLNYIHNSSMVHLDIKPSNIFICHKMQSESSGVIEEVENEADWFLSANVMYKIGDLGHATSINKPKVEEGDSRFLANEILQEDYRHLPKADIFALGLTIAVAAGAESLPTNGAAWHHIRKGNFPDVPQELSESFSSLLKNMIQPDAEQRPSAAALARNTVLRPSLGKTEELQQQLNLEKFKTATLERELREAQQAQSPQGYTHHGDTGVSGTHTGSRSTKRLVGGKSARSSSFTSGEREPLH

CC(C)(C)OC(=O)N1CCCC1CNC1CCC(c2cc(F)ccc2F)(S(=O)(=O)c2ccc(Cl)cc2)CC1 (stereo unspecified) [GSI-NC]
inhibition (Histamine H2 receptor): 53.1%

O=S(=O)(NC1CCC(c2cc(F)ccc2F)(S(=O)(=O)c2ccc(Cl)cc2)CC1)C(F)(F)F (stereo unspecified) [MRK-560]
residual activity [1]: 91% | residual activity [2]: 100% | residual activity [3]: 99% | residual activity [4]: 100% | residual activity [5]: 84% | residual activity [6]: 88% | residual activity [7]: 69% | residual activity [8]: 100% | residual activity [9]: 100% | residual activity [10]: 100% | residual activity [11]: 80% | residual activity [12]: 83% | residual activity [13]: 96% | residual activity [14]: 85% | residual activity [15]: 100% | residual activity [16]: 91% | residual activity [17]: 100% | residual activity [18]: 100% | residual activity [19]: 100% | residual activity [20]: 95% | residual activity [21]: 71% | residual activity [22]: 84% | residual activity [23]: 87% | residual activity [24]: 100% | residual activity [25]: 100% | residual activity [26]: 95% | inhibition [27]: 9.91% | residual activity [28]: 87% | residual activity [29]: 100% | residual activity [30]: 100% | residual activity [31]: 76% | residual activity [32]: 100% | residual activity [33]: 79% | residual activity [34]: 90% | residual activity [35]: 89% | residual activity [36]: 100% | residual activity [37]: 100% | residual activity [38]: 100% | residual activity [39]: 100% | residual activity [40]: 86% | residual activity [41]: 98% | residual activity [42]: 91% | residual activity [43]: 90% | residual activity [44]: 79% | residual activity [45]: 84%
